For the assay, the system named is BT-549 (Breast Cancer). In words: NCI DTP tumor cell line screen (SRB), BT-549.

Experimental: For a typical screening experiment, cells are inoculated into 96 well microtiter plates in 100 μL at plating densities ranging from 5,000 to 40,000 cells/well depending on the doubling time of individual cell lines. After cell inoculation, the microtiter plates are incubated at 37° C., 5% CO2, 95% air and 100% relative humidity for 24 h prior to addition of experimental drugs.
After 24 h, two plates of each cell line are fixed in situ with TCA, to represent a measurement of the cell population for each cell line at the time of drug addition (Tz). Experimental drugs are solubilized in dimethyl sulfoxide at 400-fold the desired final maximum test concentration and stored frozen prior to use. At the time of drug addition, an aliquot of frozen concentrate is thawed and diluted to twice the desired final maximum test concentration with complete medium containing 50 μg/ml gentamicin. Additional four, 10-fold or ½ log serial dilutions are made to provide a total of five drug concentrations plus control. Aliquots of 100 μl of these different drug dilutions are added to the appropriate microtiter wells already containing 100 μl of medium, resulting in the required final drug concentrations.
Following drug addition, the plates are incubated for an additional 48 h at 37° C., 5% CO2, 95% air, and 100% relative humidity. For adherent cells, the assay is terminated by the addition of cold TCA. Cells are fixed in situ by the gentle addition of 50 μl of cold 50% (w/v) TCA (final concentration, 10% TCA) and incubated for 60 minutes at 4° C. The supernatant is discarded, and the plates are washed five times with tap water and air dried. Sulforhodamine B (SRB) solution (1001) at 0.4% (w/v) in 1% acetic acid is added to each well, and plates are incubated for 10 minutes at room temperature. After staining, unbound dye is removed by washing five times with 1% acetic acid and the plates are air dried. Bound stain is subsequently solubilized with 10 mM trizma base, and the absorbance is read on an automated plate reader at a wavelength of 515 nm. For suspension cells, the methodology is the same except that the assay is terminated by fixing settled cells at the bottom of the wells by gently adding 50 μl of 80% TCA (final concentration, 16% TCA). Using the seven absorbance measurements [time zero, (Tz), control growth, (C), and test growth in the presence of drug at the five concentration levels (Ti)], the percentage growth is calculated at each of the drug concentrations levels. Percentage growth inhibition is calculated as: [(Ti−Tz)/(C−Tz)]×100 for concentrations for which Ti>/=Tz [(Ti−Tz)/Tz]×100 for concentrations for which Ti<Tz
Three dose response parameters are calculated for each experimental agent. […] The drug concentration resulting in total growth inhibition (TGI) is calculated from Ti=Tz. […] Values are calculated for each of these three parameters if the level of activity is reached; however, if the effect is not reached or is exceeded, the value for that parameter is expressed as greater or less than the maximum or minimum concentration tested.

Regarding `NCC(=O)Nc1ccc(-n2nc(C(F)(F)F)cc2-c2ccc3c(ccc4ccccc43)c2)cc1` [Compound 70, 2-Amino-N-{4-[5-(2-phenanthrenyl)-3-(trifluoromethyl)-1H-pyrazol-1-yl]-phenyl}-acetamide], the TGI was 2.95E−06. Where the note is “Log10 Concentration −5.0”, the “Mean Optical Densities” value is listed as 0.143 and the “Percent Growth” value is −71%. In addition, where the note is “Log10 Concentration −6.0”, the “Mean Optical Densities” value stood at 0.785 and the “Percent Growth” value came out at 63%. Moreover, for the setting “Log10 Concentration −7.0”, the “Mean Optical Densities” value is given as 0.891 and the “Percent Growth” value stood at 86%. In addition, where the note is “Log10 Concentration −8.0”, the “Mean Optical Densities” value was 0.912 and the “Percent Growth” value is recorded as 90%.

Source of the values: US8741944B2, “Anti-infective agents against intracellular pathogens” (priority 2007, dated 2014).
